Results as given in article PMC10470519, “CryoEM analysis of the essential native UDP-glucose pyrophosphorylase from Aspergillus nidulans reveals key conformations for activity regulation and function” (mBio, 2023).

Assays:
AnUGP = target: T1, AnUGP (Aspergillus nidulans, UniProt C8VK50); experiment: malachite green phosphate assay coupled to inorganic pyrophosphatase; assay type: biochemical; conditions: 0.25 mM UTP, 0.25 mM Glc-1-P, 2 mM MgCl2, 100 mM NaCl, 50 mM Tris-HCl pH 7.5, 30 °C
T1 construct: gene ANIA_09148; homooctamer
T1 sequence (C8VK50 1-514): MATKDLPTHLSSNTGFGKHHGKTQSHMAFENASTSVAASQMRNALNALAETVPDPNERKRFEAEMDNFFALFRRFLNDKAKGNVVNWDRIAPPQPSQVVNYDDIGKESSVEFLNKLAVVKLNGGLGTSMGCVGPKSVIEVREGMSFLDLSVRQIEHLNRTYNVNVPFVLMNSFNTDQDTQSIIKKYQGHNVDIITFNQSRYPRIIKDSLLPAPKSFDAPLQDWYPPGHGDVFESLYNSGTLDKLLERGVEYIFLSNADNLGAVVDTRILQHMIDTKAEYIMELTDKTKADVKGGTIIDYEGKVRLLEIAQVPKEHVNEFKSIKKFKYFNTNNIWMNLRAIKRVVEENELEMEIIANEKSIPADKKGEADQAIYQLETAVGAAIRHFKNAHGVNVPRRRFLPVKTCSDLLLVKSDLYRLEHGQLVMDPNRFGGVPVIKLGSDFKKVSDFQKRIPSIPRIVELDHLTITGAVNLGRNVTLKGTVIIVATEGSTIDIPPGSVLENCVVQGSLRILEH

[1] = target: UDP-glucose pyrophosphorylase from Aspergillus nidulans (Aspergillus nidulans); experiment: cryo-EM structure; native AnUGP in buffer A at 0.18 mg/mL, vitrified on Quantifoil R1.2/1.3 grids; Titan Krios 300 kV; C1, D4 and locally refined maps; 3D variability analysis
[2] = target: UDP-glucose pyrophosphorylase from Aspergillus nidulans (Aspergillus nidulans); experiment: SEC; Superose 6 GL 10/300 in buffer A (50 mM Tris, 200 mM NaCl, 2 mM β-mercaptoethanol, pH 7.8); peak around 14.5 mL

O=c1ccn([C@@H]2O[C@H](COP(=O)(O)OP(=O)(O)OP(=O)(O)O)[C@@H](O)[C@H]2O)c(=O)[nH]1 [UTP]
malachite green phosphate assay coupled to inorganic pyrophosphatase (AnUGP): the enzyme was specific for UTP and unable to use ATP or GTP

UDP-glucose pyrophosphorylase from Aspergillus nidulans (enzyme)
stoichiometry N [1]: 8
stoichiometry N [2]: 8

O=P(O)(O)O[C@H]1O[C@H](CO)[C@@H](O)[C@H](O)[C@H]1O [Glc-1-P]
malachite green phosphate assay coupled to inorganic pyrophosphatase (AnUGP): AnUGP catalyzes the condensation reaction between UTP and Glc-1-P to produce UDP-Glc and PPi
